# Measurements taken from patent publication US7041292B1, “Treating prostate cancer with anti-ErbB2 antibodies” (Genentech, Inc., priority 1999, dated 2006).
# Entries after “also recorded” stand apart in the source; their conditions may differ.
# B1: PEG-Fab: Fab' fragment of rhuMAb 2C4 expressed in E. coli and conjugated to 20 kD branched polyethylene glycol (conjugate, chains of the INN, looked up)
# VH: EVQLVESGGGLVQPGGSLRLSCAASGFTFTDYTMDWVRQAPGKGLEWVADVNPNSGGSIYNQRFKGRFTLSVDRSKNTLYLQMNSLRAEDTAVYYCARNLGPSFYFDYWGQGTLVTVSS
# VL: DIQMTQSPSSLSASVGDRVTITCKASQDVSIGVAWYQQKPGKAPKLLIYSASYRYTGVPSRFSGSGSGTDFTLTISSLQPEDFATYYCQQYYIYPYTFGQGTKVEIK
# modifications: Fab' 20 kD branched PEG
# Columns and labels:
# [1] = test system: CWR22R human prostate cancer xenograft; experiment: Androgen independent CWR22R prostate cancer xenograft; assay type: in vivo, mice; conditions: for effect on tumor growth / clinical activity: CWR22R androgen independent
# Experimental: (§3) Male animals were inoculated s.c. with 1×10^6 LNCaP cells or minced tumor tissue from the androgen dependent CWR22, and females received the androgen independent sublines CWR22R, or CWR22SA1, CWRSA4, CWRSA6 which were obtained by selecting tumors for regrowth and increased serum PSA after androgen withdrawal. […] Control mice were given vehicle alone. Tumors were measured every 3–4 days with vernier calipers, and tumor volumes were calculated by the formula: p/6 × larger diameter × (smaller diameter)^2. Animals with palpably established tumors of at least 65 mm^3 in volume were designated to treatment groups.
# Pairwise differences between the tumor volumes of the treatment groups were compared over time using a permutation test.
# (§4) The effect of an antibody, which blocks ligand activation of an ErbB receptor, on human prostate cancer was assessed.
# All injections were given IP (N=5).
# (§5) Both antibodies were dosed at 20 mg/kg twice per week.
# [2] = test system: CWRSA6 human prostate cancer xenograft; experiment: Androgen independent CWRSA6 prostate cancer xenograft; assay type: in vivo, mice
# Experimental: as §3
# Statistical Analysis. Pairwise differences between the tumor volumes of the treatment groups were compared over time using a permutation test. […] The statistic used to test the hypothesis was the sum of the squared differences between mean tumor volume summed over all time points.
# [3] = test system: LNCaP human prostate cancer xenograft; experiment: Androgen dependent LNCaP prostate cancer xenograft; assay type: in vivo, mice; conditions: end of the treatment period, n=6
# Description: Animal studies: Four to six week old nude athymic BALB/c male and female mice were obtained from the National Cancer Institute-Frederick Cancer Center and maintained in pressurized ventilated caging at the Sloan-Kettering Institute. Male animals were inoculated s.c. with 1×10^6 LNCaP cells or minced tumor tissue from the androgen dependent CWR22, and females received the androgen independent sublines CWR22R, or CWR22SA1, CWRSA4, CWRSA6 which were obtained by selecting tumors for regrowth and increased serum PSA after androgen withdrawal. All lines were injected together with reconstituted basement membrane (Matrigel; Collaborative Research, Bedford, Mass.) as described previously (Nagabhushan et al. Cancer Res. 56:3042–3046 (1996); Wainstein et al. Cancer Res. 54:6049–6052 (1994); and Sato et al. Cancer Res. 57:1584–1589 (1997)). To maintain serum testosterone levels, male mice were implanted with 12.5-mg sustained release testosterone pellets (Innovative Research of American, Sarasota, Fla.) s.c. before receiving the tumor cell inoculation. […] Control mice were given vehicle alone. Tumors were measured every 3–4 days with vernier calipers, and tumor volumes were calculated by the formula: p/6 × larger diameter × (smaller diameter)^2. Animals with palpably established tumors of at least 65 mm^3 in volume were designated to treatment groups. […]
# [4] = test system: MSKPC6 androgen independent prostate xenograft; experiment: Androgen independent MSKPC6 prostate xenograft, dose response; assay type: in vivo; conditions: IP loading 6, 20 or 60 mg/kg then 3, 10 or 30 mg/kg twice weekly, FIG. 25
# Experimental: Dose response studies were carried out using rhuMAb 4D5 in the CWR22R and MSKPC6 (Agus et al. Cancer Research 59:4761–4764 (1999)) androgen independent prostate xenografts. Animals were dosed IP with: control; 6 mg/kg loading dose then 3 mg/kg twice weekly; 20 mg/kg loading dose then 10 mg/kg twice weekly; or 60 mg/kg loading dose then 30 mg/kg twice weekly.
# MDA-MB-175 cells = experiment: MDA-MB-175 cell proliferation, crystal violet, 4 days, with or without rHRGβ1; assay type: cell-based, human; conditions: 10 μg/mL, not significantly reversed by exogenous HRG, FIG. 4A
# Experimental: (§1) Experiment was carried out in medium containing 1% serum. Anti-ErbB2 antibodies or medium alone were added and the cells were incubated for 2 hours at 37° C. Subsequently rHRGβ1 (1 nM) or medium alone were added and the cells were incubated for 4 days. Monolayers were washed and stained/fixed with 0.5% crystal violet. To determine cell proliferation the absorbance was measured at 540 nm.
# (§2) ErbB2 levels in MDA-MB-175 cells are 4–6 times higher than the level found in normal breast epithelial cells and the ErbB2-ErbB4 receptor is constitutively tyrosine phosphorylated in MDA-MB-175 cells. […] Inhibition of cell proliferation by 4D5 is dependent on the ErbB2 expression level (Lewis et al. Cancer Immunol. Immunother. 37:255–263 (1993)). […] However this effect […] by exogenous HRG.
# [5] = test system: CWR22 human prostate cancer xenograft; experiment: Androgen dependent CWR22 prostate cancer xenograft; assay type: in vivo, mice; conditions: antibody 20 mg/kg twice weekly
# Description: Animal studies: Four to six week old nude athymic BALB/c male and female mice were obtained from the National Cancer Institute-Frederick Cancer Center and maintained in pressurized ventilated caging at the Sloan-Kettering Institute. Male animals were inoculated s.c. with 1×10^6 LNCaP cells or minced tumor tissue from the androgen dependent CWR22, and females received the androgen independent sublines CWR22R, or CWR22SA1, CWRSA4, CWRSA6 which were obtained by selecting tumors for regrowth and increased serum PSA after androgen withdrawal. […] Control mice were given vehicle alone. Tumors were measured every 3–4 days with vernier calipers, and tumor volumes were calculated by the formula: p/6 × larger diameter × (smaller diameter)^2. Animals with palpably established tumors of at least 65 mm^3 in volume were designated to treatment groups.
# Pairwise differences between the tumor volumes of the treatment groups were compared over time using a permutation test. […] The statistic used to test the hypothesis was the sum of the squared differences between mean tumor volume summed over all time points.
# as §4, §5
# SK-BR-3 cells = experiment: SK-BR-3 cell proliferation, crystal violet, 4 days, with or without rHRGβ1; assay type: cell-based, human; conditions: 1% serum, FIG. 4B
# Experimental: as §1, §2
# [6] = test system: EGF, TGF-α or HRG mediated activation of MAPK in MCF7 cells; experiment: EGF, TGF-α or HRG activation of MAPK in MCF7 cells, Western blot; assay type: cell-based, human; conditions: 200 nM antibody; 1 nM EGF, 1 nM TGF-α or 0.2 nM HRG; FIG. 10
# Experimental: Many growth factor receptors signal through the mitogen-activated protein kinase (MAPK) pathway. These dual specificity kinases are one of the key endpoints in signal transduction pathways that ultimately triggers cancer cells to divide.
# MCF7 cells (10^5 cells/well) were plated in serum containing media in 12-well cell culture plates. The next day, the cell media was removed and fresh media containing 0.1% serum was added to each well. This procedure was then repeated the following day and prior to assay the media was replaced with serum-free binding buffer (Jones et al. J. Biol. Chem. 273:11667–74 (1998); and Schaefer et al. J. Biol. Chem. 274:859–66 (1999)). […] Cells were then treated with 1 nM EGF, 1 nM TGF-α or 0.2 nM HRG for 15 minutes. The reaction was stopped by aspirating the cell medium and then adding 0.2 mL SDS-PAGE sample buffer containing 1% DTT. MAPK activation was assessed by Western blotting using an anti-active MAPK antibody (Promega) as described previously (Jones et al. J. Biol. Chem. 273:11667–74 (1998)).
Molecule,"mean tumor volume ([1]; CWR22R, end of the treatment period, n=5)","mean tumor volume ([2]; CWRSA6, end of the treatment period, n=5)",mean tumor volume [3] [mm^3],effect on tumor growth [4],effect on tumor growth / clinical activity [1],growth inhibitory effect on MDA-MB-175 cells (MDA-MB-175 cells),effect on tumor growth / clinical activity [5],effect on tumor growth / clinical activity ([2]; CWRSA6 androgen independent),growth inhibitory effect on SK-BR-3 cells (SK-BR-3 cells),"block of EGF, TGF-α and HRG mediated activation of MAPK [6]"
"CC(=O)O[C@H]1C(=O)[C@@]2(C)[C@H]([C@H](OC(=O)c3ccccc3)[C@]3(O)C[C@H](OC(=O)[C@H](O)[C@@H](NC(=O)c4ccccc4)c4ccccc4)C(C)=C1C3(C)C)[C@]1(OC(C)=O)CO[C@@H]1C[C@@H]2O [paclitaxel, reference compound]","1,273 mm^3","1,496 mm^3",233,,,,,,,
"2C4: murine monoclonal antibody binding the extracellular domain of ErbB2, blocks ligand activation; ATCC HB12697 [Mutant 2C4]",,,,suppresses the growth of androgen-independent tumor xenografts in a dose dependent manner,has clinical activity; also recorded: suppresses the growth of androgen-independent tumor xenografts in a dose dependent manner,strong growth inhibitory effect,has clinical activity,has clinical activity,no inhibitory effect,significantly blocks
B1,,,,,inhibits tumor growth,,,,,
